Measured values taken from ChEMBL document CHEMBL1201862, “PubChem BioAssay data set” (2004).
Activity calls are given as the source filed them.

Columns and labels:
[1] = molecular target: Heat shock 70 kDa protein 1A (Homo sapiens, UniProt P0DMV8); test: Hsp70 inhibitors, SAR follow-up, biochemical, fluorescence polarization (AID 1072)
[2] = molecular target: T1, Tyrosine-protein phosphatase non-receptor type 7 (Homo sapiens, UniProt P35236); format: functional
T1 sequence (P35236 whole entry): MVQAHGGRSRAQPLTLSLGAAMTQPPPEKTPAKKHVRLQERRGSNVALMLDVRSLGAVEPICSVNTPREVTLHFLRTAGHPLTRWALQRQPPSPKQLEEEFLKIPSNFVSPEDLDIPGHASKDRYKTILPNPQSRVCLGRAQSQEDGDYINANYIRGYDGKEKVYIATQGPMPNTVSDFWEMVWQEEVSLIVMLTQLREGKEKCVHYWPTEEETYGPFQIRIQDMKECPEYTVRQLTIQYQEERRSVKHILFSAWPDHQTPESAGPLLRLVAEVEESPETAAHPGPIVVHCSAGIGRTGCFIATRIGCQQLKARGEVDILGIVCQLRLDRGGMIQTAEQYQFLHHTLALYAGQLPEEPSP

[3] = molecular target: Heat shock cognate 71 kDa protein (Homo sapiens, UniProt P11142); test: In Vitro Hsc70 Dose Response Fluorescence Polarization Assay. [Related pubchem assays: 1072 ]
[4] = molecular target: T2, Dual specificity protein phosphatase 6 (Rattus norvegicus, UniProt Q64346); format: functional
T2 sequence (Q64346 whole entry): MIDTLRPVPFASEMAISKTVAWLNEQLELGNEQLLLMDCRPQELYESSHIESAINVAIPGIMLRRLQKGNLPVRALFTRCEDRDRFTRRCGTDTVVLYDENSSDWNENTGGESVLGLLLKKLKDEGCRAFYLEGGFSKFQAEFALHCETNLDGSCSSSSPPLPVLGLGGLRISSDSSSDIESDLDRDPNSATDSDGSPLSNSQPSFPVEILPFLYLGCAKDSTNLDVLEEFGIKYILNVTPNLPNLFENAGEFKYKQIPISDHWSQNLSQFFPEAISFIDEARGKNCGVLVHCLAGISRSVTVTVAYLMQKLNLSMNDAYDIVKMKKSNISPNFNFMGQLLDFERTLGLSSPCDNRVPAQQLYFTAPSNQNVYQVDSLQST

[5] = molecular target: T2, Dual specificity protein phosphatase 6
[6] = molecular target: Glyceraldehyde-3-phosphate dehydrogenase (Homo sapiens, UniProt P04406)
[7] = Shn3 3'UTR reporter inhibitors, dose response, cell-based, Clone20 osteoblasts, firefly luciferase, cherry-picked (AID 624132); format: functional;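 also: firefly luciferase luminescence from reporter carrying the Shn3 3'UTR in osteoblasts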
[8] = A549 cell cytotoxicity, dose response, cytotoxicity control, plate reader, cherry-pick, antagonist series (AID 743412); format: functional, cell-based
[9] = cytotoxicity in HEK-293T cells, dose response, cytotoxicity control for TCR NF-kB inhibitor project, luminescence, T-cell screen hits (AID 489026); format: functional, cell-based;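 also: cells exposed to compound about 14 hours before the viability readout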
[10] = Luminescence-based counterscreen assay for KLF5 inhibitors: dose response cell-based high throughput screening assay to identify cytotoxic compounds using the IEC-6 intestinal epithelial cell line. [Related pubchem assays: 1700 (Primary screen.), 1834 (Confirmation screen.), 1858 (Summary AID.), 1905 (Counterscreen.)]; format: functional
[11] = molecular target: T3, Heat shock factor protein 1 (Mus musculus, UniProt P38532); test: inhibition of MG132-induced HSE-luciferase signal, confirmation, cell-based, NIH3T3, luminescence, dose retest (AID 2382); format: functional;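 also: NIH3T3 fibroblasts with HSF1-driven luciferase reporter stressed by proteasome inhibitor MG132; luminescence from HSF1-driven luciferase expression after 8 hours of MG132 stress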
T3 sequence (P38532 whole entry): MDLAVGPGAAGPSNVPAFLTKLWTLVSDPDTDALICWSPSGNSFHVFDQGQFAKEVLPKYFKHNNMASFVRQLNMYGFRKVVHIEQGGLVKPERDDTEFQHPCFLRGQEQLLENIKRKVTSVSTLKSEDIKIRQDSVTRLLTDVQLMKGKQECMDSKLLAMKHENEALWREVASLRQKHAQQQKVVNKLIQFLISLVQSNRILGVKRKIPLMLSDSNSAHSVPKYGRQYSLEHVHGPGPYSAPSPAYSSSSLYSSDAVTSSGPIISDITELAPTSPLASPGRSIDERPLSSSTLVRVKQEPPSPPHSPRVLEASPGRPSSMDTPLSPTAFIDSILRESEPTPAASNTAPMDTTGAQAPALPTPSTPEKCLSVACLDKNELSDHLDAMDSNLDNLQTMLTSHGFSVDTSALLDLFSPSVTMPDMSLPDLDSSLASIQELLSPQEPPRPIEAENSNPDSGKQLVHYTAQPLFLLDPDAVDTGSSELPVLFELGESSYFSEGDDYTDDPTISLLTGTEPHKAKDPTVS

[12] = MC4R antagonists, dose response, counter-screen for LGR2 antagonist project, cell-based, plate reader, cherry pick (AID 743444); format: functional;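 also: transfected HEK 293 cells stimulated with alpha-MSH peptide; potency of inhibitors of the alpha-MSH evoked signal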
[13] = LGR2 antagonists, dose response, cell-based, HEK293, CRE-luciferase reporter, cherry pick, set 2 (AID 743343); format: functional;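 also: transfected cells were stimulated with diluted bursicon conditioned medium after compound addition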
[14] = reduction of Shn3 3'UTR firefly luciferase signal, dose response, Schnurri-3 inhibitor project, cell-based, Clone20 osteoblasts, cherry-pick, set 2 (AID 720490); format: functional;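 also: actives lower the luminescence signal as inhibitors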
[15] = HepG2 cell cytotoxicity, dose response, cytotoxicity control, plate reader, cherry-pick, antagonist series (AID 743416); format: functional, cell-based
Paired box protein Pax-8 = Paired box protein Pax-8 (Homo sapiens, UniProt Q06710); test: inhibitors of PAX8-driven TPO luciferase reporter, dose response, RMG-I cells, cherry-pick (AID 687027); format: functional, cell-based;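 also: luciferase reporter driven by Pax8 target thyroperoxidase promoter measured by SteadyGlo luminescence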
HEK293 [16] = test: NOD2 signaling inhibitors in MDP-stimulated cells, cell-based, uHTS, luminescence (AID 2001); format: functional; details: Homo sapiens
HEK293 [17] = test: cells; format: functional, cell-based; details: Homo sapiens
[18] = molecular target: Nucleotide-binding oligomerization domain-containing protein 2 (Homo sapiens, UniProt Q9HC29); test: NOD2 signaling inhibitors, cell-based, luminescence, uHTS, HEK293 (AID 1566); format: functional
HEK293 [19] = test: cells; format: functional, cell-based; details: Homo sapiens; remark: listed apart in the source
HEK293 [20] = test: cells; format: functional, cell-based; details: Homo sapiens; remark: listed apart in the source
HEK293 [21] = test: NOD1 signaling inhibitors, primary screen, cell-based, luminescence, uHTS (AID 1578); format: functional; details: Homo sapiens
Estrogen receptor beta = Estrogen receptor beta (Homo sapiens, UniProt Q92731); test: ERβ–SRC-3 coactivator interaction inhibitors, confirmation, orthogonal assay, biochemical, ELISA, streptavidin-HRP readout (AID 1060)
Estrogen receptor = molecular target: T4, Estrogen receptor (Homo sapiens, UniProt P03372);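 also: potency for inhibiting coactivator peptide recruitment to the receptor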
T4 sequence (P03372 whole entry): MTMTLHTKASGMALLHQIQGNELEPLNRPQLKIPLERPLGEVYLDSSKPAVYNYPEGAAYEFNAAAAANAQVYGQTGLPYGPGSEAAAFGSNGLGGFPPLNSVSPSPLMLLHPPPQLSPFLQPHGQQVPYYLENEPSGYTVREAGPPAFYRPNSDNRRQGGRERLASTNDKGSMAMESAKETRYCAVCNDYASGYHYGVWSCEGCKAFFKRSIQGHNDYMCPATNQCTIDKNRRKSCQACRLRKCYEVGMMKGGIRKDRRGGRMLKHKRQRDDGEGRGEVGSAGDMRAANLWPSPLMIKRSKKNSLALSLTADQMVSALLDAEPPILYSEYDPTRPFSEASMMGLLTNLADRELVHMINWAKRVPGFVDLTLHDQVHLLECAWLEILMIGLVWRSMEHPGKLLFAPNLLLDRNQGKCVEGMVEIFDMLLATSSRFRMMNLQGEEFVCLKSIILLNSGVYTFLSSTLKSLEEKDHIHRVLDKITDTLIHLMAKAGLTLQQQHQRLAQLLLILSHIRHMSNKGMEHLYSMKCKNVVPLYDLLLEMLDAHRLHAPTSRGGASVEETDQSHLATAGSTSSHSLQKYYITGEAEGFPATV

[22] = molecular target: T5, RNA-binding protein pos-1 (Caenorhabditis elegans, UniProt G5EF15); test: inhibitors of POS-1/mex-3 RNA binding, dose response, biochemical, fluorescence polarization (AID 1964);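 also: purified POS-1 fused to maltose binding protein made in E. coli; potency of compounds blocking POS-1 binding to fluorescent RNA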
T5 sequence (G5EF15 whole entry): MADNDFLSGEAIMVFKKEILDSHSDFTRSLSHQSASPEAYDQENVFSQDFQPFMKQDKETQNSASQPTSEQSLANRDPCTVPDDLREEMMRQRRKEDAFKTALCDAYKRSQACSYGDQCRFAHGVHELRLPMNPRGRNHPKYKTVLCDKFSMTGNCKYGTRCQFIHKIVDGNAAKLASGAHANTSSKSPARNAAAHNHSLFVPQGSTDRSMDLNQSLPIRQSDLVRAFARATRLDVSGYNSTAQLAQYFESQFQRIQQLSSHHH

[23] = molecular target: T6, Zinc finger protein mex-5 (Caenorhabditis elegans, UniProt Q9XUB2); test: MEX-5/TCR-2 RNA interaction inhibitors, dose response, biochemical, C. elegans, fluorescence polarization (AID 1960)
T6 sequence (Q9XUB2 whole entry): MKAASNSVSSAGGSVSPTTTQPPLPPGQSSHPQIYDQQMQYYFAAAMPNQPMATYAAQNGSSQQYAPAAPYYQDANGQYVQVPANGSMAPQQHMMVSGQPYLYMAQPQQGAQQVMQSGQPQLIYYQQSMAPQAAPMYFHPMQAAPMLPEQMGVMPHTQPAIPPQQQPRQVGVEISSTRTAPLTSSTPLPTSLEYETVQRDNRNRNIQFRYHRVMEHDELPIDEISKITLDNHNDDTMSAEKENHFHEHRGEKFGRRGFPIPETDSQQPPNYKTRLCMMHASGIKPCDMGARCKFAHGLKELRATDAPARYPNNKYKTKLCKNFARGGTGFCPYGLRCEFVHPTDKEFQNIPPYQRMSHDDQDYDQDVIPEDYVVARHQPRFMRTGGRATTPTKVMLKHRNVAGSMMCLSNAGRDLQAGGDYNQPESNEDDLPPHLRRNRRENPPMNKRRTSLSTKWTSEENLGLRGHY

[24] = molecular target: Induced myeloid leukemia cell differentiation protein Mcl-1 (Homo sapiens, UniProt Q07820); format: functional
[25] = molecular target: Melanin-concentrating hormone receptor 1 (Homo sapiens, UniProt Q99705); test: Late-stage fluorescence-based counterscreen for antagonists of the G-protein coupled receptor 7 (GPR7): cell-based dose response assay to identify antagonists of the melanin-concentrating hormone receptor 1 (MCHR1). [Related pubchem assays (depositor defined):AID1861, AID1880, AID1952, AID2148, AID2251, AID2257, AID485339]; format: functional;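 also: stimulated with 30 nM MCH peptide agonist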
ORF 73 = ORF 73 (Human herpesvirus 8, UniProt O40947); test: inhibitors of C-LANA binding to LBS DNA, dose response, biochemical, fluorescence polarization, cherry-picked samples (AID 504725); design: species or system Human gammaherpesvirus 8;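 also: fluorescence polarization of a labeled DNA duplex reporting LANA DNA binding; potency is for inhibitors that block LANA binding to the DNA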
Cytochrome P450 2D6 [26] = molecular target: T7, Cytochrome P450 2D6 (Homo sapiens, UniProt P10635);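 also: CYP2D6 member of a cytochrome P450 panel assay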
Cytochrome P450 2D6 [27] = molecular target: T7, Cytochrome P450 2D6; remark: listed apart in the source

Sequence of Melanin-concentrating hormone receptor 1 (Q99705 whole entry): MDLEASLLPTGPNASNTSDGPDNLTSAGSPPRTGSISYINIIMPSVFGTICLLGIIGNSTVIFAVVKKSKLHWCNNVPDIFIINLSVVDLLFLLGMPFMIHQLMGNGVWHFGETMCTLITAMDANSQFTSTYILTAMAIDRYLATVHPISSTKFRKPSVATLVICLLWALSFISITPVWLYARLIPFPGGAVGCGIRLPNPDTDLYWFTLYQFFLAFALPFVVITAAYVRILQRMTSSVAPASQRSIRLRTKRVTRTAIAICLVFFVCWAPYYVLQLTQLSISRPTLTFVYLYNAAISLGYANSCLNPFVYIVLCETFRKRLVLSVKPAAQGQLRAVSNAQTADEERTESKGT
Sequence of Glyceraldehyde-3-phosphate dehydrogenase (P04406 whole entry): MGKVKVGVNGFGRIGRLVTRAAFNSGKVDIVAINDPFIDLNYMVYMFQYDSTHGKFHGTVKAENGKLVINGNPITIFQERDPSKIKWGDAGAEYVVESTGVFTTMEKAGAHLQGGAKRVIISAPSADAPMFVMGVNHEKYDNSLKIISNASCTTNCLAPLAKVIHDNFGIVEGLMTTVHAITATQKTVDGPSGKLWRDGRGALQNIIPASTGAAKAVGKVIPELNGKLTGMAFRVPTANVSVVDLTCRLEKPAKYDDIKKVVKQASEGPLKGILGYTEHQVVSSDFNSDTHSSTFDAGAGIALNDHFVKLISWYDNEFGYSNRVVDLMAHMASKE
Sequence of Heat shock cognate 71 kDa protein (P11142 whole entry): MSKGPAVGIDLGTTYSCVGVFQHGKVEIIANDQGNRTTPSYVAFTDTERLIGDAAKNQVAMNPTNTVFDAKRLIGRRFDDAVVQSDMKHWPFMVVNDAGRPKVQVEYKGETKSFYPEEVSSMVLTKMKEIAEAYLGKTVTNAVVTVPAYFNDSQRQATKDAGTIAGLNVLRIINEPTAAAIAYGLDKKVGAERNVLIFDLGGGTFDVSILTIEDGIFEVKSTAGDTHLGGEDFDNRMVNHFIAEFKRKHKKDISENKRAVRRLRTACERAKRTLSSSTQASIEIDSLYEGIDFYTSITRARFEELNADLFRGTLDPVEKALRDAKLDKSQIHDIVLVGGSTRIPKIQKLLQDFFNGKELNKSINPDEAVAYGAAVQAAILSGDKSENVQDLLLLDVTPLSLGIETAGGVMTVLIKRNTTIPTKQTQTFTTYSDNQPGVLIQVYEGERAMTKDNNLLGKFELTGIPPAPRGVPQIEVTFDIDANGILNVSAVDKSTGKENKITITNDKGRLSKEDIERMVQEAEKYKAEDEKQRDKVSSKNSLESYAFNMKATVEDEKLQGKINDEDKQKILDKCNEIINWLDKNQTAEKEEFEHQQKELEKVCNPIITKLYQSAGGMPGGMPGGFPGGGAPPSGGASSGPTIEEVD
T7 sequence (P10635 whole entry): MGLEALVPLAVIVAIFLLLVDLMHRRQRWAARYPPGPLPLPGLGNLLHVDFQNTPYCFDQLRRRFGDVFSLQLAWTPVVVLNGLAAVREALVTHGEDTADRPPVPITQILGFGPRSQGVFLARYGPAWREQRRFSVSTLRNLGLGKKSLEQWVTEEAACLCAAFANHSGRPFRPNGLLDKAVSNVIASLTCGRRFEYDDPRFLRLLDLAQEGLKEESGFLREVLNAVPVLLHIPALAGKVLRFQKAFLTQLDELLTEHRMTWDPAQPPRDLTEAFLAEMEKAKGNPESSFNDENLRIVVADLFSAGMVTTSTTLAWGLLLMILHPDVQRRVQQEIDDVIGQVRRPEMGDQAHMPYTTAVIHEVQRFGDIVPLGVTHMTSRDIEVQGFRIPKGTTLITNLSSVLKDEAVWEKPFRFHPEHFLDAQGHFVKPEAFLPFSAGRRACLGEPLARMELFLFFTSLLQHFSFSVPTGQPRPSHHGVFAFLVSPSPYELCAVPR
Sequence of Heat shock 70 kDa protein 1A (P0DMV8 whole entry): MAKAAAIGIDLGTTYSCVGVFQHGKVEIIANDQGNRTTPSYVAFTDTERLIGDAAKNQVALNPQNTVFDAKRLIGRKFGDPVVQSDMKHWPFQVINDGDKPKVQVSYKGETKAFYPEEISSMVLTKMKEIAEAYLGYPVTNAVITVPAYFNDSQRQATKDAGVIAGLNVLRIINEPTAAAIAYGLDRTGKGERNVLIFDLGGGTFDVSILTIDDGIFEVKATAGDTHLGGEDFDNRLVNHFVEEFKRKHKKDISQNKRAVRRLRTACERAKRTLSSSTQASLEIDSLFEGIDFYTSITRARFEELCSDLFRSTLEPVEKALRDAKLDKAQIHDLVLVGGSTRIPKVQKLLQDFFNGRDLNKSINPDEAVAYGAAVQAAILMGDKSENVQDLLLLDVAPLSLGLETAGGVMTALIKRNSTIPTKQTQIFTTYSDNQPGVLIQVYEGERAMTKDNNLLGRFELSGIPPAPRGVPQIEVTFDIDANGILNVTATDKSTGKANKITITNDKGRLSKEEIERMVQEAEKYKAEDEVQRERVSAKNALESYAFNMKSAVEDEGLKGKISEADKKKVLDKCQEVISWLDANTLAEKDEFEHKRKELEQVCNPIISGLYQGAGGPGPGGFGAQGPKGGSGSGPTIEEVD
Sequence of ORF 73 (O40947 whole entry): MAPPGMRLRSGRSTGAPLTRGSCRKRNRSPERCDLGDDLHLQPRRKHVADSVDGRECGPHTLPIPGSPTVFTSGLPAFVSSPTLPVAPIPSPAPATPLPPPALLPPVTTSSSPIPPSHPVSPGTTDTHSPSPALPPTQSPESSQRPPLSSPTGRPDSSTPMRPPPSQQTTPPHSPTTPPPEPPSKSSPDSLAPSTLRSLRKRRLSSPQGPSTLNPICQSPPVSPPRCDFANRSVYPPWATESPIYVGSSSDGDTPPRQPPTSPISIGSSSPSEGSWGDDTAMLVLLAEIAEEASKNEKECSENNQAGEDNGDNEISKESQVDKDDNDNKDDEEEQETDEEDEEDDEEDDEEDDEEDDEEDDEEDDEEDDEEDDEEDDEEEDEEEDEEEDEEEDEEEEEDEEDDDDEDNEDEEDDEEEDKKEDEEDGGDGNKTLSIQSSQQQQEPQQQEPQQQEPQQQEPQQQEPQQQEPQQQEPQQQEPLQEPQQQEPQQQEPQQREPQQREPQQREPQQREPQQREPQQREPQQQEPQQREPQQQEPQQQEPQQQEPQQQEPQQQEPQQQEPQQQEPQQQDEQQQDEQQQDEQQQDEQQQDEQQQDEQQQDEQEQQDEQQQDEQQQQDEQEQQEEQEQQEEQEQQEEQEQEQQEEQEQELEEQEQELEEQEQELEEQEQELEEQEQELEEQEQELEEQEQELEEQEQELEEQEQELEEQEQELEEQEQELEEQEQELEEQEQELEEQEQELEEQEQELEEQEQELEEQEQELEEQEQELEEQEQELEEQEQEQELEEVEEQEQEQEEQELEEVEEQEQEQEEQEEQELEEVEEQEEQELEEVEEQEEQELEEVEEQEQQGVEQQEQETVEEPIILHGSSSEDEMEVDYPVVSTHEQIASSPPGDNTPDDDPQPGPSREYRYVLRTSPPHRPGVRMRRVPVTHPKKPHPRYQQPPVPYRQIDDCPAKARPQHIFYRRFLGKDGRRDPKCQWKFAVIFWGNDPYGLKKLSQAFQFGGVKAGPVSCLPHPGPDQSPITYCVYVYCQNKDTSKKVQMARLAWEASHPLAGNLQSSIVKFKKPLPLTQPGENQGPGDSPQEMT
Sequence of Paired box protein Pax-8 (Q06710 whole entry): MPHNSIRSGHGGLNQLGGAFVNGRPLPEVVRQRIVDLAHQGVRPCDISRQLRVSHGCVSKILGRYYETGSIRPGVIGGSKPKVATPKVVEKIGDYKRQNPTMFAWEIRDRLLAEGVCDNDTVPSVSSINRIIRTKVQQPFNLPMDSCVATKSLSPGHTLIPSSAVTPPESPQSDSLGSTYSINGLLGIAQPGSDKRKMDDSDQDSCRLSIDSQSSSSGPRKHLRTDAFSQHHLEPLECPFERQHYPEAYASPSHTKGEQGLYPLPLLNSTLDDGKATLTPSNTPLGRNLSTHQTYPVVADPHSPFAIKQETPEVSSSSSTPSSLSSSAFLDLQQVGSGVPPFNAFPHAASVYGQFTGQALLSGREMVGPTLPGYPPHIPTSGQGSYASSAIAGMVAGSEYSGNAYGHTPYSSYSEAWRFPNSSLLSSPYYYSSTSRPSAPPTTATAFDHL
Sequence of Nucleotide-binding oligomerization domain-containing protein 2 (Q9HC29 whole entry, the tested form may be a part): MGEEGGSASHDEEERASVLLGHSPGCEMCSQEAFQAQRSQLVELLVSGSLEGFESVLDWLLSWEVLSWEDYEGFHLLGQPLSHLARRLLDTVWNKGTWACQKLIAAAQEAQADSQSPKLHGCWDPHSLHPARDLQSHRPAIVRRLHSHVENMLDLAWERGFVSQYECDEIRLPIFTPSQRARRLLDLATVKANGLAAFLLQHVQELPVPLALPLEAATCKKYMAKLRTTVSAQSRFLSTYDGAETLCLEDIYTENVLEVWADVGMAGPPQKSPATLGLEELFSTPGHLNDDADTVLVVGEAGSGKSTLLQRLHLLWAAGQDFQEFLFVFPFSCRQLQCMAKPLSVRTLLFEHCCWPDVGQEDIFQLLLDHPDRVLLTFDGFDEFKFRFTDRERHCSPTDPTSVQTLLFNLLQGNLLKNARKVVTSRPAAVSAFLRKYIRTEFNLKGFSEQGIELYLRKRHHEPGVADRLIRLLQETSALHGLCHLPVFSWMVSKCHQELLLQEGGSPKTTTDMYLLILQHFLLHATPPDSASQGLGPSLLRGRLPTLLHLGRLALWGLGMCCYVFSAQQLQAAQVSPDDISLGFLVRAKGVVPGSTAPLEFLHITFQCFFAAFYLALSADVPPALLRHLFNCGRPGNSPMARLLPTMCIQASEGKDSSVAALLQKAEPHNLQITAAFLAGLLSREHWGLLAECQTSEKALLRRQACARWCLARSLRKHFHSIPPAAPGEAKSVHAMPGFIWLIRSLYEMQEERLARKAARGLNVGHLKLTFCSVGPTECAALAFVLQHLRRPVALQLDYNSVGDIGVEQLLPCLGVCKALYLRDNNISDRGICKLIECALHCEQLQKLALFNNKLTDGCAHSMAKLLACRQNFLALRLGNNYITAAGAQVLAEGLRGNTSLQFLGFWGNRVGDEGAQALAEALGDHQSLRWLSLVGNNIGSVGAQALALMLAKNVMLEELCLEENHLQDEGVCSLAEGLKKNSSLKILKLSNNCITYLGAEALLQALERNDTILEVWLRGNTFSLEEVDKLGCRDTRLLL

SMILES: O=C(Oc1ccc2c(c1)C1C=CCC1C(C(=O)O)N2)c1ccc(Cl)cc1Cl (configuration not stated)
- IC50 [1]: > 100 µM (not active)
- IC50 [2]: 2.38 µM (active)
- IC50 [3]: > 100 µM (not active)
- IC50 [4]: 15.6 µM (active)
- IC50 [5]: 17 µM (active)
- IC50 [6]: > 100 µM (not active)

SMILES: CCN(c1ccccc1)S(=O)(=O)c1ccc(Cl)c(NC(=O)c2ccc(O)nn2)c1
- IC50 (cells): 32.8 µM (active)

SMILES: CC1=C2C(=O)C3C(CC=C4CC(O)CCC43C)C2CCC12OC1CC(C)CNC1C2C (configuration not stated)
- IC50 (cells): 4.18 µM (active)

SMILES: CC(C)(C)C(=O)Nc1ccc(NC(=O)c2ccco2)nc1
- AC50 [7]: 1.17 µM (active)
- AC50 [8]: > 52 µM (inactive)
- IC50 [9]: > 80 µM (inactive)
- IC50 [10]: > 39.8 µM (not active)
- EC50 [11]: < 0.16 µM (active)
- AC50 [12]: 0.245 µM (active)
- AC50 [13]: 0.243 µM (active)
- AC50 [14]: 2.64 µM (active)
- AC50 [15]: > 52 µM (inactive)
- AC50 (Paired box protein Pax-8): 1.26 µM (active)

SMILES: Cn1c(Sc2ccc(Cl)cc2)c(C=O)c2ccccc21
- IC50 (HEK293 [16]): 1.15 µM (active)
- IC50 (HEK293 [17]): 0.748 µM (active)
- EC50 [18]: 2.17 µM (active)
- IC50 (HEK293 [19]): > 20 µM (inactive)
- IC50 (HEK293 [20]): > 20 µM (inactive)
- EC50 (HEK293 [21]): 1.63 µM (active)

SMILES: O=C(O)C1Nc2c(C(=O)N3CCOCC3)cccc2C2C=CCC12 (configuration not stated)
- IC50 [1]: > 100 µM (not active)
- IC50 (Estrogen receptor beta): 0.0407 µM (not active)
- IC50 (Estrogen receptor): 15.9 µM (active)
- IC50 [3]: > 100 µM (not active)
- EC50 [22]: 45.1 µM (active)
- EC50 [23]: 21.3 µM (inconclusive)
- IC50 [6]: > 100 µM (not active)
- IC50 [24]: 2.78 µM (not active)

SMILES: CC(C)c1ccc(-n2ncc(Cl)c(Oc3ccc(Cl)c(Cl)c3)c2=O)cc1
- IC50 [25]: 15.9 µM (inactive)

SMILES: COc1ccc(Oc2c(Cl)cnn(-c3cc(C)ccc3C)c2=O)cc1
- IC50 [25]: 12.2 µM (inactive)

SMILES: OCCN(CCO)c1nc(N2CCCCC2)c2nc(N(CCO)CCO)nc(N3CCCCC3)c2n1 [DIPYRIDAMOLE]
- AC50 (ORF 73): 8.87 µM (active)
- AC50 (Cytochrome P450 2D6 [26]): inactive
- AC50 (Cytochrome P450 2D6 [27]): 10 µM (active)
